# Reference: US20250243196A1, “CITRON KINASE INHIBITORS” (The Cleveland Clinic Foundation, priority 2021, published 2025)
# Like-named read-outs stand apart in the source and are kept apart here.
# Tests used:
# [1] = biological target: PKD2(h) (Homo sapiens (Human), UniProt Q9BZL6); assay: KinaseProfiler panel; format: biochemical; design: dose or concentration left out as unconfirmed; conditions: activity remaining
# [2] = biological target: NEK1(h) (Homo sapiens (Human), UniProt Q96PY6); assay: KinaseProfiler panel; format: biochemical; design: dose or concentration left out as unconfirmed; conditions: activity remaining
# [3] = biological target: CaMKIIδ(h) (Homo sapiens (Human), UniProt Q13557); assay: KinaseProfiler panel; format: biochemical; design: dose or concentration left out as unconfirmed; conditions: activity remaining
# [4] = biological target: STK25(h) (Homo sapiens (Human), UniProt O00506); assay: KinaseProfiler panel; format: biochemical; design: dose or concentration left out as unconfirmed; conditions: activity remaining
# [5] = biological target: TNIK(h) (Homo sapiens (Human), UniProt Q9UKE5); assay: KinaseProfiler panel; format: biochemical; conditions: activity remaining
# [6] = system: NCI-60 human tumor cell line panel; assay: NCI-60 human tumor cell line screen (GI50); format: cell-based
# [7] = biological target: LKB1(h) (Homo sapiens (Human), UniProt Q15831); assay: KinaseProfiler panel; format: biochemical; design: dose or concentration left out as unconfirmed; conditions: activity remaining
# [8] = biological target: EphB3(h) (Homo sapiens (Human), UniProt P54753); assay: KinaseProfiler panel; format: biochemical; design: dose or concentration left out as unconfirmed; conditions: activity remaining
# Chain of EphB3(h) (P54753 34-998): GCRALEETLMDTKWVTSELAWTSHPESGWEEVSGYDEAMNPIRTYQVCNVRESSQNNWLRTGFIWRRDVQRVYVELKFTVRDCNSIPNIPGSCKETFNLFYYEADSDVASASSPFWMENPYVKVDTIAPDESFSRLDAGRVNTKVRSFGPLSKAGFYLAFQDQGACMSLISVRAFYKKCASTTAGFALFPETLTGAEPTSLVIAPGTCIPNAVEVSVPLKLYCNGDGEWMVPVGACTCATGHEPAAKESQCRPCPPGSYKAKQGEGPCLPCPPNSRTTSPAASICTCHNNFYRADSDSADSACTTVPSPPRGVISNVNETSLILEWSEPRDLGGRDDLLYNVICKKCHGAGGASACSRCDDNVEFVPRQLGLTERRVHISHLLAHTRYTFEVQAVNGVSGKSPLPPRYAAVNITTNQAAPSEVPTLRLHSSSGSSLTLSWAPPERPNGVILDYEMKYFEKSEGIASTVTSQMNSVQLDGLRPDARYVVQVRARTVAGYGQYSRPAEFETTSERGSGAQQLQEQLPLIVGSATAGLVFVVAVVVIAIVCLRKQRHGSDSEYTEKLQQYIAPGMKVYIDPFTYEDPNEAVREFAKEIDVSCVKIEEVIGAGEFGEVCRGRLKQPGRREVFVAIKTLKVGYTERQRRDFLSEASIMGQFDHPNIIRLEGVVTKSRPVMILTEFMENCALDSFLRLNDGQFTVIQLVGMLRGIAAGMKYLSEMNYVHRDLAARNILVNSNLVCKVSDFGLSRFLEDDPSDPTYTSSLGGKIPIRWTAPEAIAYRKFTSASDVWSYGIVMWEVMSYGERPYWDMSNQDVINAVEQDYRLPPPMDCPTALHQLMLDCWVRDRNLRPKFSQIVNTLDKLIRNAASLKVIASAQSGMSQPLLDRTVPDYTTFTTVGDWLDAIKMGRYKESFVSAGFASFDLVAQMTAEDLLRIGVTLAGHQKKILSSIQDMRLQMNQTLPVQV
# Chain of STK25(h) (O00506 whole entry): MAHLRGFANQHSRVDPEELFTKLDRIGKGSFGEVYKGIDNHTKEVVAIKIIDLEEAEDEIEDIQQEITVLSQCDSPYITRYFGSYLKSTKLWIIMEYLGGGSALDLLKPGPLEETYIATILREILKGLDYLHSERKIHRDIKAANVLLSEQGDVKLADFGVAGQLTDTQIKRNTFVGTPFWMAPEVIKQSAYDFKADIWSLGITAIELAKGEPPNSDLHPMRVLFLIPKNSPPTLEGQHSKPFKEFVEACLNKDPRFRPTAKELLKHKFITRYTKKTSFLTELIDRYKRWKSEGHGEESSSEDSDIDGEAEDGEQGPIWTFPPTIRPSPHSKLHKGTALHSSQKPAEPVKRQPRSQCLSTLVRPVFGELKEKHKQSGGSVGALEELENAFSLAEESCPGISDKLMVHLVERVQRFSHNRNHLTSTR
# Chain of PKD2(h) (Q9BZL6 whole entry): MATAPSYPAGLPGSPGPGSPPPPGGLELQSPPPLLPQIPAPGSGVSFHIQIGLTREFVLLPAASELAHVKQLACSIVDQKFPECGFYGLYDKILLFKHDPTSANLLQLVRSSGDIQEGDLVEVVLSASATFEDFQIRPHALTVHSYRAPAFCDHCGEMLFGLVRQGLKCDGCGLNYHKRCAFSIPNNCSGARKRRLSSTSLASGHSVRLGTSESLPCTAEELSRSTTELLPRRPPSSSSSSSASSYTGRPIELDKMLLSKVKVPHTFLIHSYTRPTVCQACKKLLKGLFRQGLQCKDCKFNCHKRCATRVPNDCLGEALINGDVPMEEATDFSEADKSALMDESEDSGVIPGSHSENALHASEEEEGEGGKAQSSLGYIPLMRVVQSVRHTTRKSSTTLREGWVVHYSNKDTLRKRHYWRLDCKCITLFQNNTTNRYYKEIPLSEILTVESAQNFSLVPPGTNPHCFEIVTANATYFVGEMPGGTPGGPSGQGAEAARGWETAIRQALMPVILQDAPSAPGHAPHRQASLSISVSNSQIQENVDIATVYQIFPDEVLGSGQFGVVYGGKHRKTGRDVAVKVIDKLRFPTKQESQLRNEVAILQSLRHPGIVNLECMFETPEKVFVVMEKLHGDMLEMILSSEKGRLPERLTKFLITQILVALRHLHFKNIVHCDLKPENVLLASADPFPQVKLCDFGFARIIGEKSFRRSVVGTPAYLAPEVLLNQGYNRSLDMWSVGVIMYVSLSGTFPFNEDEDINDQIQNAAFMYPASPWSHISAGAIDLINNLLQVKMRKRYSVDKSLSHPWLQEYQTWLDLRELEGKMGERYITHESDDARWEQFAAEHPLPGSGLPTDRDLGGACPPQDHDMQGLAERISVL
# Chain of NEK1(h) (Q96PY6 whole entry): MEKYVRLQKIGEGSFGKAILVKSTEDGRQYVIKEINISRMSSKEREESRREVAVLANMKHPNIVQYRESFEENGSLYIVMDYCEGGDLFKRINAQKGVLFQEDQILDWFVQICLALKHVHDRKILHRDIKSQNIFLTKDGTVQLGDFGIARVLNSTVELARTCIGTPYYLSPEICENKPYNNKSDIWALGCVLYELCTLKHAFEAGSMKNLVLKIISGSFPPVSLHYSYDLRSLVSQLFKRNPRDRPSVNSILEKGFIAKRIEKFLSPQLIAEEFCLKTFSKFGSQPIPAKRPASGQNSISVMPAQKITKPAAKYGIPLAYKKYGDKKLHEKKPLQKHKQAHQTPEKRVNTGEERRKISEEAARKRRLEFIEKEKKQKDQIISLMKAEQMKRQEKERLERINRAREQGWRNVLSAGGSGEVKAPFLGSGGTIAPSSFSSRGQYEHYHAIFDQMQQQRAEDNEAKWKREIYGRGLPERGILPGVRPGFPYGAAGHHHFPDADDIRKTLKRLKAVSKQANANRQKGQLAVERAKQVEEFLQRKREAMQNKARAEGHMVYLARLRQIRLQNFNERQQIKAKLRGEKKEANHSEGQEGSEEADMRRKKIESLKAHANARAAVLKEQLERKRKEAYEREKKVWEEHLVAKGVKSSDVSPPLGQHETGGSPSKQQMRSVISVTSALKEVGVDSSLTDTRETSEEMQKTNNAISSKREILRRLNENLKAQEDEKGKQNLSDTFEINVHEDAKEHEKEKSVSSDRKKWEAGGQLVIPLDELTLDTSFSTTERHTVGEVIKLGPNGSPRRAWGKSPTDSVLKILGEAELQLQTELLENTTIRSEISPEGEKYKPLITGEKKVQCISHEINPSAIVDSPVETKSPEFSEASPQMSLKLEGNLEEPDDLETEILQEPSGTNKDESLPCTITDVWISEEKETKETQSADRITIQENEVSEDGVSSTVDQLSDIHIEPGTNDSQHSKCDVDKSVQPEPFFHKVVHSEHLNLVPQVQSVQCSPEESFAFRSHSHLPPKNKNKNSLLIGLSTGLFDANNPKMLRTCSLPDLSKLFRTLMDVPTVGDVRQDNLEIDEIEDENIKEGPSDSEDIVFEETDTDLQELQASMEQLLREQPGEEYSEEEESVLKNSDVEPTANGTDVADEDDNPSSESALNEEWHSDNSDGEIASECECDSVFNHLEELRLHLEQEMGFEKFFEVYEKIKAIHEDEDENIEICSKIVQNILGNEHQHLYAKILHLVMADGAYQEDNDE
# Chain of LKB1(h) (Q15831 whole entry): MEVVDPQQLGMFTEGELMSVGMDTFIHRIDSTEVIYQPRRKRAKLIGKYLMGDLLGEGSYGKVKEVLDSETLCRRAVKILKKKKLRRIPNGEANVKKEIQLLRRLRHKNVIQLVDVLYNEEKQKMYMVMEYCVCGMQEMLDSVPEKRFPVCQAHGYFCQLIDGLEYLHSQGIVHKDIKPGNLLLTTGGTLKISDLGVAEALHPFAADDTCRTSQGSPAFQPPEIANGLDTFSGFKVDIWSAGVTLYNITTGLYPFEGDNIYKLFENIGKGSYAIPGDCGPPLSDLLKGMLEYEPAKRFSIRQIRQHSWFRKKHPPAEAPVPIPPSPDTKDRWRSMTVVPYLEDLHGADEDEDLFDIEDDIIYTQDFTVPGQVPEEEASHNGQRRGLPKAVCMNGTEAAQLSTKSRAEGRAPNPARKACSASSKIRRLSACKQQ
# Chain of LKB1(h) (Q7RTN6 whole entry partner): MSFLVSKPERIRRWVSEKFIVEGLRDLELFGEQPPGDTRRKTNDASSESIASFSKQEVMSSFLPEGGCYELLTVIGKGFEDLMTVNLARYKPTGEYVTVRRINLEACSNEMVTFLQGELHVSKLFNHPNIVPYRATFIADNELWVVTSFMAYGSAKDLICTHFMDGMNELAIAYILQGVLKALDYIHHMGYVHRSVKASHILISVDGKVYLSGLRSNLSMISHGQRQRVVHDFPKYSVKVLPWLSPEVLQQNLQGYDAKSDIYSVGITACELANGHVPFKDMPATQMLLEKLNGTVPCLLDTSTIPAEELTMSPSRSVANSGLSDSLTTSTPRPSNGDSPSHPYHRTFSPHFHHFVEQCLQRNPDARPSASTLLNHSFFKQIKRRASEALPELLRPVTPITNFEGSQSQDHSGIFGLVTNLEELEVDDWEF
# Chain of LKB1(h) (Q9Y376 whole entry partner): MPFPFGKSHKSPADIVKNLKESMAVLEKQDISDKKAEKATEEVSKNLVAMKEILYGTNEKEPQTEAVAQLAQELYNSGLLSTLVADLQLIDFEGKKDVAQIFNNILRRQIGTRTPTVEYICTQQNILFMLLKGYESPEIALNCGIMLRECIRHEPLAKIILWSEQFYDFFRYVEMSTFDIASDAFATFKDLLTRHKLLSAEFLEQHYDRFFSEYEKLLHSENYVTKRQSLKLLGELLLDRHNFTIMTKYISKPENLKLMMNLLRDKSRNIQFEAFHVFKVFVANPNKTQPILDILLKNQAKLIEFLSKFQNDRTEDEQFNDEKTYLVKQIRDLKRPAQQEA
compound,measurement,setting,value
"Cc1cc2c(-c3ccc(NC(=O)[C@H](N)CC(C)(C)C)cc3C)ccnc2[nH]1 [Compound F-90, (2R)-2-Amino-4,4-dimethyl-N-[3-methyl-4-(2-methyl-1H-pyrrolo[2,3-b]pyridin-4-yl)phenyl]pentanamide]",% Activity,[1],95%
same,% Activity,[2],94%
same,% Activity,[3],96%
same,% Activity,[4],92%
same,% Activity,[5],93%
same,GI50,"[6]; 786-0, Renal Cancer",−5.744 Log(M)
same,GI50,"[6]; A498, Renal Cancer",−5.657 Log(M)
same,GI50,"[6]; A549/ATCC, Non-Small Cell Lung Cancer",−4.985 Log(M)
same,GI50,"[6]; ACHN, Renal Cancer",−4.978 Log(M)
same,GI50,"[6]; BT-549, Breast Cancer",−5.200 Log(M)
same,GI50,"[6]; CAKI-1, Renal Cancer",−5.347 Log(M)
same,GI50,"[6]; CCRF-CEM, Leukemia",−5.267 Log(M)
same,GI50,"[6]; COLO 205, Colon Cancer",−5.741 Log(M)
same,GI50,"[6]; DU-145, Prostate Cancer",−4.905 Log(M)
same,GI50,"[6]; EKVX, Non-Small Cell Lung Cancer",−4.950 Log(M)
same,GI50,"[6]; HCC-2998, Colon Cancer",−5.236 Log(M)
same,GI50,"[6]; HCT-15, Colon Cancer",−5.345 Log(M)
same,GI50,"[6]; HCT-116, Colon Cancer",−5.314 Log(M)
same,GI50,"[6]; HL-60(TB), Leukemia",−5.539 Log(M)
same,GI50,"[6]; HOP-62, Non-Small Cell Lung Cancer",−4.941 Log(M)
same,GI50,"[6]; HOP-92, Non-Small Cell Lung Cancer",−5.574 Log(M)
same,GI50,"[6]; HS 578T, Breast Cancer",−5.849 Log(M)
same,GI50,"[6]; HT29, Colon Cancer",−5.565 Log(M)
same,GI50,"[6]; Homo sapiens, 786-0, 786-0, Renal Cancer, read-out: GI50",1.8 µM
same,GI50,"[6]; Homo sapiens, A498, A498, Renal Cancer, read-out: GI50",2.2 µM
same,GI50,"[6]; Homo sapiens, A549, A549/ATCC, Non-Small Cell Lung Cancer, read-out: GI50",10.3 µM
same,GI50,"[6]; Homo sapiens, ACHN, Renal Cancer, read-out: GI50",10.5 µM
same,GI50,"[6]; Homo sapiens, BT-549, BT-549, Breast Cancer, read-out: GI50",6.3 µM
same,GI50,"[6]; Homo sapiens, CAKI-1, CAKI-1, Renal Cancer, read-out: GI50",4.5 µM
same,GI50,"[6]; Homo sapiens, CCRF-CEM, Leukemia, read-out: GI50",5.4 µM
same,GI50,"[6]; Homo sapiens, COLO 205, COLO 205, Colon Cancer, read-out: GI50",1.8 µM
same,GI50,"[6]; Homo sapiens, DU-145, DU-145, Prostate Cancer, read-out: GI50",12.4 µM
same,GI50,"[6]; Homo sapiens, EKVX, Non-Small Cell Lung Cancer, read-out: GI50",11.2 µM
same,GI50,"[6]; Homo sapiens, HCC 2998, HCC-2998, Colon Cancer, read-out: GI50",5.8 µM
same,GI50,"[6]; Homo sapiens, HCT-15, HCT-15, Colon Cancer, read-out: GI50",4.5 µM
same,GI50,"[6]; Homo sapiens, HCT-116, HCT-116, Colon Cancer, read-out: GI50",4.9 µM
same,GI50,"[6]; Homo sapiens, HL-60, HL-60(TB), Leukemia, read-out: GI50",2.9 µM
same,GI50,"[6]; Homo sapiens, HOP-62, HOP-62, Non-Small Cell Lung Cancer, read-out: GI50",11.4 µM
same,GI50,"[6]; Homo sapiens, HOP-92, HOP-92, Non-Small Cell Lung Cancer, read-out: GI50",2.7 µM
same,GI50,"[6]; Homo sapiens, HT-29, HT29, Colon Cancer, read-out: GI50",2.7 µM
same,GI50,"[6]; Homo sapiens, Hs-578T, HS 578T, Breast Cancer, read-out: GI50",1.4 µM
same,GI50,"[6]; Homo sapiens, IGROV-1, IGROV1, Ovarian Cancer, read-out: GI50",12.2 µM
same,GI50,"[6]; Homo sapiens, K562, K-562, Leukemia, read-out: GI50",2.8 µM
same,GI50,"[6]; Homo sapiens, KM12, KM12, Colon Cancer, read-out: GI50",6.1 µM
same,GI50,"[6]; Homo sapiens, LOX IMVI, Melanoma, read-out: GI50",6.2 µM
same,GI50,"[6]; Homo sapiens, M14, M14, Melanoma, read-out: GI50",11 µM
same,GI50,"[6]; Homo sapiens, MCF7, MCF7, Breast Cancer, read-out: GI50",5.5 µM
same,GI50,"[6]; Homo sapiens, MDA-MB-231, MDA-MB-231/ATCC, Breast Cancer, read-out: GI50",7.4 µM
same,GI50,"[6]; Homo sapiens, MDA-MB-435, MDA-MB-435, Breast Cancer, read-out: GI50",7 µM
same,GI50,"[6]; Homo sapiens, MDA-MB-468, MDA-MB-468, Breast Cancer, read-out: GI50",2.7 µM
same,GI50,"[6]; Homo sapiens, MOLT-4, MOLT-4, Leukemia, read-out: GI50",4.7 µM
same,GI50,"[6]; Homo sapiens, Malme-3M, Melanoma, read-out: GI50",10.2 µM
same,GI50,"[6]; Homo sapiens, NCI-H23, NCI-H23, Non-Small Cell Lung Cancer, read-out: GI50",12.2 µM
same,GI50,"[6]; Homo sapiens, NCI-H226, NCI-H226, Non-Small Cell Lung Cancer, read-out: GI50",10.7 µM
same,GI50,"[6]; Homo sapiens, NCI-H322M, Non-Small Cell Lung Cancer, read-out: GI50",14.3 µM
same,GI50,"[6]; Homo sapiens, NCI-H460, NCI-H460, Non-Small Cell Lung Cancer, read-out: GI50",5.7 µM
same,GI50,"[6]; Homo sapiens, NCI-H522, NCI-H522, Non-Small Cell Lung Cancer, read-out: GI50",13 µM
same,GI50,"[6]; Homo sapiens, NCI/ADR-RES, Breast Cancer, read-out: GI50",13.4 µM
same,GI50,"[6]; Homo sapiens, OVCAR-3, OVCAR-3, Ovarian Cancer, read-out: GI50",11.6 µM
same,GI50,"[6]; Homo sapiens, OVCAR-4, OVCAR-4, Ovarian Cancer, read-out: GI50",7 µM
same,GI50,"[6]; Homo sapiens, OVCAR-5, OVCAR-5, Ovarian Cancer, read-out: GI50",10.4 µM
same,GI50,"[6]; Homo sapiens, OVCAR-8, OVCAR-8, Ovarian Cancer, read-out: GI50",13.6 µM
same,GI50,"[6]; Homo sapiens, PC-3, Prostate Cancer, read-out: GI50",7.9 µM
same,GI50,"[6]; Homo sapiens, RPMI-8226, RPMI-8226, Leukemia, read-out: GI50",2.8 µM
same,GI50,"[6]; Homo sapiens, RXF 393, RXF 393, Renal Cancer, read-out: GI50",3.7 µM
same,GI50,"[6]; Homo sapiens, SF-268, SF-268, CNS Cancer, read-out: GI50",11.1 µM
same,GI50,"[6]; Homo sapiens, SF-295, SF-295, CNS Cancer, read-out: GI50",8.3 µM
same,GI50,"[6]; Homo sapiens, SF-539, SF-539, CNS Cancer, read-out: GI50",8 µM
same,GI50,"[6]; Homo sapiens, SK-MEL-2, SK-MEL-2, Melanoma, read-out: GI50",14 µM
same,GI50,"[6]; Homo sapiens, SK-MEL-5, SK-MEL-5, Melanoma, read-out: GI50",2.5 µM
same,GI50,"[6]; Homo sapiens, SK-MEL-28, SK-MEL-28, Melanoma, read-out: GI50",8.5 µM
same,GI50,"[6]; Homo sapiens, SK-OV-3, SK-OV-3, Ovarian Cancer, read-out: GI50",12.4 µM
same,GI50,"[6]; Homo sapiens, SN12C, Renal Cancer, read-out: GI50",11.1 µM
same,GI50,"[6]; Homo sapiens, SNB-19, SNB-19, CNS Cancer, read-out: GI50",11.3 µM
same,GI50,"[6]; Homo sapiens, SNB-75, SNB-75, CNS Cancer, read-out: GI50",4.7 µM
same,GI50,"[6]; Homo sapiens, SR, Leukemia, read-out: GI50",2.1 µM
same,GI50,"[6]; Homo sapiens, SW-620, SW-620, Colon Cancer, read-out: GI50",5.6 µM
same,GI50,"[6]; Homo sapiens, T47D, T-47D, Breast Cancer, read-out: GI50",6.7 µM
same,GI50,"[6]; Homo sapiens, TK-10, TK-10, Renal Cancer, read-out: GI50",12.6 µM
same,GI50,"[6]; Homo sapiens, U-251, U251, CNS Cancer, read-out: GI50",6 µM
same,GI50,"[6]; Homo sapiens, UACC-62, UACC-62, Melanoma, read-out: GI50",8.6 µM
same,GI50,"[6]; Homo sapiens, UACC-257, UACC-257, Melanoma, read-out: GI50",10.5 µM
same,GI50,"[6]; Homo sapiens, UO-31, UO-31, Renal Cancer, read-out: GI50",4.6 µM
same,GI50,"[6]; IGROV1, Ovarian Cancer",−4.915 Log(M)
same,GI50,"[6]; K-562, Leukemia",−5.551 Log(M)
same,GI50,"[6]; KM12, Colon Cancer",−5.215 Log(M)
same,GI50,"[6]; LOX IMVI, Melanoma",−5.211 Log(M)
same,GI50,"[6]; M14, Melanoma",−4.959 Log(M)
same,GI50,"[6]; MALME-3M, Melanoma",−4.992 Log(M)
same,GI50,"[6]; MCF7, Breast Cancer",−5.256 Log(M)
same,GI50,"[6]; MDA-MB-231/ATCC, Breast Cancer",−5.129 Log(M)
same,GI50,"[6]; MDA-MB-435, Breast Cancer",−5.155 Log(M)
same,GI50,"[6]; MDA-MB-468, Breast Cancer",−5.564 Log(M)
same,GI50,"[6]; MOLT-4, Leukemia",−5.329 Log(M)
same,GI50,"[6]; NCI-H23, Non-Small Cell Lung Cancer",−4.915 Log(M)
same,GI50,"[6]; NCI-H226, Non-Small Cell Lung Cancer",−4.971 Log(M)
same,GI50,"[6]; NCI-H322M, Non-Small Cell Lung Cancer",−4.845 Log(M)
same,GI50,"[6]; NCI-H460, Non-Small Cell Lung Cancer",−5.245 Log(M)
same,GI50,"[6]; NCI-H522, Non-Small Cell Lung Cancer",−4.887 Log(M)
same,GI50,"[6]; NCI/ADR-RES, Breast Cancer",−4.873 Log(M)
same,GI50,"[6]; OVCAR-3, Ovarian Cancer",−4.937 Log(M)
same,GI50,"[6]; OVCAR-4, Ovarian Cancer",−5.158 Log(M)
same,GI50,"[6]; OVCAR-5, Ovarian Cancer",−4.982 Log(M)
same,GI50,"[6]; OVCAR-8, Ovarian Cancer",−4.867 Log(M)
same,GI50,"[6]; PC-3, Prostate Cancer",−5.102 Log(M)
same,GI50,"[6]; RPMI-8226, Leukemia",−5.557 Log(M)
same,GI50,"[6]; RXF 393, Renal Cancer",−5.434 Log(M)
same,GI50,"[6]; SF-268, CNS Cancer",−4.953 Log(M)
same,GI50,"[6]; SF-295, CNS Cancer",−5.079 Log(M)
same,GI50,"[6]; SF-539, CNS Cancer",−5.098 Log(M)
same,GI50,"[6]; SK-MEL-2, Melanoma",−4.853 Log(M)
same,GI50,"[6]; SK-MEL-5, Melanoma",−5.609 Log(M)
same,GI50,"[6]; SK-MEL-28, Melanoma",−5.072 Log(M)
same,GI50,"[6]; SK-OV-3, Ovarian Cancer",−4.905 Log(M)
same,GI50,"[6]; SN12C, Renal Cancer",−4.953 Log(M)
same,GI50,"[6]; SNB-19, CNS Cancer",−4.945 Log(M)
same,GI50,"[6]; SNB-75, CNS Cancer",−5.326 Log(M)
same,GI50,"[6]; SR, Leukemia",−5.682 Log(M)
same,GI50,"[6]; SW-620, Colon Cancer",−5.250 Log(M)
same,GI50,"[6]; T-47D, Breast Cancer",−5.174 Log(M)
same,GI50,"[6]; TK-10, Renal Cancer",−4.901 Log(M)
same,GI50,"[6]; U251, CNS Cancer",−5.222 Log(M)
same,GI50,"[6]; UACC-62, Melanoma",−5.066 Log(M)
same,GI50,"[6]; UACC-257, Melanoma",−4.977 Log(M)
same,GI50,"[6]; UO-31, Renal Cancer",−5.335 Log(M)
same,% Activity,[7],99%
same,% Activity,[8],79%
